# According to patent publication US12570605B2, “Indole compounds, and preparation methods, and uses thereof” (Shenzhen 01 Life Science and Technology Co., Ltd., priority 2021, dated 2026):
# “Also recorded” adds a separate entry of the source.
# Key:
# [1] = test system: mouse model with ear AD-like symptoms induced by calcipotriol (MC903); test: Mouse model with ear AD-like symptoms induced by calcipotriol (MC903), second batch of experiments (Embodiment 32); type: in vivo, BALB/c mouse; conditions: MC903 5 nmol/mouse every day, 9 days; for therapeutic effects on AD-like symptoms in the ear of mice (ear inflammation, tissue HE staining, parameters of multiple experiments): screening over both batches; for reducing ear thicknesses of the mice / reducing the total serum IgE levels of the mice: vs model control group (MC903+EtOH), Mann-Whitney test
# Description: (§1) A mouse model with ear AD-like symptoms induced by calcipotriol (MC903) was used to investigate these compounds in terms of the treatment activity for AD.
# (§2) Referring to the Patent with a publication number of CN 110368386 A, a mouse model induced by MC903 (Calcipotriene) was prepared, wherein both ears of the BALB/c mouse model were applied with MC903, MC903+indole-3-aldehyde (IAId), or MC903+the compound prepared from the embodiments for 11 consecutive days, respectively, and total serum IgE levels, ear thicknesses, and weight loss in relative to the weight at the beginning of the experiment were tested at the end of the experiment.
# (§3) The data shown in the results were average values ±SD of five independently repeated trials. Significance analysis was performed using Mann-Whitney test on the differences of corresponding parameters of the mice with the treatment group (MC903+ethanol (EtOH)), which was only administrated with MC903, wherein * indicated P<0.05, ** indicated P<0.01; *** indicated P<0.001.
# Therefore, in the second batch of drug tests, the dosage of MC903 was decreased to 5 nmol/mouse every day, and the test period was reduced to 9 days.
# (§4) EtOH group was a Blank control group, which was only administrated with ethanol. MC903+ EtOH group was a model control group, which was administrated with Calcipotriene and ethanol. The remaining groups were the groups which were administered with MC903 to construct the model, and then administered with different drugs. Indole-3-aldehyde (IAId) group was the group administered with IAId. Indole-3-methanol (I3C) group was the group administered with I3C. The other compound groups were the groups administered with corresponding compounds.
# [2] = test system: mouse model with ear AD-like symptoms induced by calcipotriol (MC903); test: Optimum effective concentration in treatment of AD-like symptoms, MC903 mouse model (Embodiment 33); type: in vivo; conditions: vs group only administrated with MC903; for inhibitory effect on systematic inflammation (lower total serum IgE levels and improvement on AD-like symptoms in the mice ear): dosages per Table 11
# Description: The above screened compounds having therapeutic effect on AD-like symptoms were selected to further determine the optimum effective concentration.
# Referring to the animal model method in the Embodiment 32, dosages of drugs for each group were determined according to the table below, and the optimal effective concentration in treatment of AD-like symptoms was explored by comparing the differences in ear thicknesses, the total serum IgE levels and the weight loss of the mice with those of the treatment group only administrated with MC903.
# [3] = test system: mouse model with ear AD-like symptoms induced by calcipotriol (MC903); test: Mouse model with ear AD-like symptoms induced by calcipotriol (MC903), first batch of experiments (Embodiment 32); type: in vivo, BALB/c mouse; conditions: MC903 6.9 nmol/mouse every day; for therapeutic effects on AD-like symptoms in the ear of mice (combined with ear inflammation and tissue HE staining): 11 days; for reducing ear thicknesses of the mice / reducing the total serum IgE levels of the mice: both ears, 11 consecutive days, vs model control group (MC903+EtOH), Mann-Whitney test
# Description: as §1, §2, §3
# In this batch of experiments, the dosage of MC903, a drug for constructing the models, was 6.9 nmol/mouse every day, and the experimental results of Compounds 1, 2, 3, 6, 7, 19, 20, 28, 29, 30, 34, 37, 38, and 39 in this batch were shown in FIGS. 11 to 13.
# as §4, with “then administrated” for “then administered”, “with IAId, indole-3-methanol” for “with IAId. Indole-3-methanol”
Compound,"therapeutic effects on AD-like symptoms in the ear of mice (ear inflammation, tissue HE staining, parameters of multiple experiments) [1]",reducing ear thicknesses of the mice [1],reducing the total serum IgE levels of the mice [1],inhibitory effect on systematic inflammation (lower total serum IgE levels and improvement on AD-like symptoms in the mice ear) [2],therapeutic effect on AD-like symptoms in the mouse ear ([2]; at different concentration),therapeutic effects on AD-like symptoms in the ear of mice (combined with ear inflammation and tissue HE staining) [3],reducing ear thicknesses of the mice [3],reducing the total serum IgE levels of the mice [3]
"CCCCCCCCCCCC(=O)OCOC(=O)n1cc(C=O)c2ccccc21 [Compound 4, (dodecanoyloxy)methyl 3-formyl-1H-indole-1-carboxylate]",therapeutic effects,statistically significant difference,statistically significant difference; also recorded: excellent effects,good inhibitory effect; also recorded: excellent inhibitory effect,–,–,–,–
"O=Cc1cn(C(=O)OCOC(=O)Cc2ccccc2Nc2c(Cl)cccc2Cl)c2ccccc12 [Compound 9, (2-(2-((2,6-dichlorophenyl)amino)phenyl)acetoxy)methyl 3-formyl-1H-indole-1-carboxylate]",therapeutic effects,statistically significant difference; also recorded: excellent effects,statistically significant difference; also recorded: excellent effects,good inhibitory effect,significant therapeutic effect,–,–,–
"CCCCCCCCCCCC(=O)OCOC(=O)n1cc(CO)c2ccccc21 [Compound 22, (dodecanoyloxy)methyl 3-(hydroxymethyl)-1H-indole-1-carboxylate]",therapeutic effects,–,statistically significant difference; also recorded: excellent effects,good inhibitory effect,–,–,–,–
"CCCCCCCC(=O)OCn1cc(C=O)c2ccccc21 [Compound 29, (3-formyl-1H-indol-1-yl)methyl octanoate]",therapeutic effects,statistically significant difference,–,good inhibitory effect,–,significant therapeutic effects,statistically significant difference; also recorded: excellent effects,statistically significant difference
"CCCCCCCCCC(=O)OCn1cc(C=O)c2ccccc21 [Compound 30, (3-formyl-1H-indol-1-yl)methyl decanoate]",therapeutic effects,statistically significant difference,statistically significant difference; also recorded: excellent effects,good inhibitory effect; also recorded: excellent inhibitory effect,–,significant therapeutic effects,statistically significant difference; also recorded: excellent effects,statistically significant difference; also recorded: excellent effects
"CC(=O)Oc1ccccc1C(=O)OCn1cc(C=O)c2ccccc21 [Compound 35, (3-formyl-1H-indol-1-yl)methyl 2-acetoxybenzoate]",therapeutic effects,–,statistically significant difference; also recorded: excellent effects,good inhibitory effect,–,–,–,–
"CCCCCCCC(=O)OCn1cc(CO)c2ccccc21 [Compound 38, (3-(hydroxymethyl)-1H-indol-1-yl)methyl octanoate]",therapeutic effects,statistically significant difference,statistically significant difference,good inhibitory effect; also recorded: excellent inhibitory effect,–,significant therapeutic effects,–,statistically significant difference; also recorded: excellent effects
"O=Cc1c[nH]c2ccccc12 [IAId, indole-3-carboxaldehyde, reference compound]",–,–,–,–,–,–,significantly reduced,significantly reduced
